In BindingDB's records for doi:10.3109/14756366.2011.604851 (Shandong University, 2012):

Columns and labels:
Gag-Pol polyprotein [1] = biological target: T1, Gag-Pol polyprotein (Human immunodeficiency virus type 1 group M subtype B (isolate HXB2), UniProt P04585); assay: 3'-P Inhibitory Assay
Procedure: Cleavage of a dinucleotide from each 3'-end of viral cDNA. All biological assays were performed essentially as previously described [Dayam et al., J. Med. Chem., 51:1136-1144].

Gag-Pol polyprotein [2] = biological target: T1, Gag-Pol polyprotein; assay: ST Inhibitory Assay
Procedure: Insertion of two newly processed 3'-viral DNA ends into the host-cell chromosome. All biological assays were performed essentially as previously described [Dayam et al., J. Med. Chem., 51:1136-1144].

SMILES: CC(=O)Oc1ccc(/C=C/C(=O)Nc2ccc(S(=O)(=O)Nc3ccc(Cl)c(Cl)c3)cc2)cc1OC(C)=O [(E)-3-(3,4-Diacetoxyphenyl)-N-(4-(3,4-Dichlorophenylsulfamoyl)phenyl)acrylamide (10h)]
- IC50 (Gag-Pol polyprotein [1]): 75 µM
- IC50 (Gag-Pol polyprotein [2]): 7 µM

SMILES: CC(=O)Oc1ccc(/C=C/C(=O)Nc2ccc(S(=O)(=O)Nc3ccc(F)c(F)c3)cc2)cc1OC(C)=O [(E)-3-(3,4-Diacetoxyphenyl)-N-(4-(3,4-Difluorophenylsulfamoyl)phenyl)acrylamide (10b)]
- IC50 (Gag-Pol polyprotein [1]): 60 µM
- IC50 (Gag-Pol polyprotein [2]): 11 µM

SMILES: CC(=O)Oc1ccc(/C=C/C(=O)Nc2ccc(S(=O)(=O)Nc3cc(C)cc(C)c3)cc2)cc1OC(C)=O [(E)-3-(3,4-Diacetoxyphenyl)-N-(4-(3,5-Dimethylphenylsulfamoyl)phenyl)acrylamide (10k)]
- IC50 (Gag-Pol polyprotein [1]): 80 µM
- IC50 (Gag-Pol polyprotein [2]): 16 µM

SMILES: CC(=O)Oc1ccc(/C=C/C(=O)Nc2ccc(S(=O)(=O)Nc3cccc(Cl)c3F)cc2)cc1OC(C)=O [(E)-3-(3,4-Diacetoxyphenyl)-N-(4-(3-chloro-2-fluorophenylsulfamoyl)phenyl)acrylamide (10l)]
- IC50 (Gag-Pol polyprotein [1]): 50 µM
- IC50 (Gag-Pol polyprotein [2]): 13 µM

SMILES: O=C(/C=C/c1ccc(O)c(O)c1)Nc1ccc(S(=O)(=O)Nc2ccccc2Br)cc1 [(E)-3-(3,4-Dihydroxyphenyl)-N-(4-(2-Bromophenylsulfamoyl)phenyl)acrylamide (11g)]
- IC50 (Gag-Pol polyprotein [1]): 11 µM
- IC50 (Gag-Pol polyprotein [2]): 9 µM

SMILES: O=C(/C=C/c1ccc(O)c(O)c1)Nc1ccc(S(=O)(=O)Nc2ccc(Cl)c(Cl)c2)cc1 [(E)-3-(3,4-Dihydroxyphenyl)-N-(4-(3,4-Dichlorophenylsulfamoyl)phenyl)acrylamide (11h)]
- IC50 (Gag-Pol polyprotein [1]): 17 µM
- IC50 (Gag-Pol polyprotein [2]): 6 µM

SMILES: O=C(/C=C/c1ccc(O)c(O)c1)Nc1ccc(S(=O)(=O)Nc2ccc(F)c(F)c2)cc1 [(E)-3-(3,4-Dihydroxyphenyl)-N-(4-(3,4-Difluorophenylsulfamoyl)phenyl)acrylamide (11b)]
- IC50 (Gag-Pol polyprotein [1]): 11 µM
- IC50 (Gag-Pol polyprotein [2]): 6 µM

SMILES: Cc1cc(C)cc(NS(=O)(=O)c2ccc(NC(=O)/C=C/c3ccc(O)c(O)c3)cc2)c1 [(E)-3-(3,4-Dihydroxyphenyl)-N-(4-(3,5-Dimethylphenylsulfamoyl)phenyl)acrylamide (11k)]
- IC50 (Gag-Pol polyprotein [1]): 5 µM
- IC50 (Gag-Pol polyprotein [2]): 4 µM

SMILES: O=C(/C=C/c1ccc(O)c(O)c1)Nc1ccc(S(=O)(=O)Nc2cccc(Br)c2)cc1 [(E)-3-(3,4-Dihydroxyphenyl)-N-(4-(3-Bromophenylsulfamoyl)phenyl)acrylamide (11f)]
- IC50 (Gag-Pol polyprotein [1]): 49 µM
- IC50 (Gag-Pol polyprotein [2]): 22 µM

SMILES: O=C(/C=C/c1ccc(O)c(O)c1)Nc1ccc(S(=O)(=O)Nc2ccc(F)c(Br)c2)cc1 [(E)-3-(3,4-Dihydroxyphenyl)-N-(4-(3-bromo-4-fluorophenylsulfamoyl)phenyl)acrylamide (11u)]
- IC50 (Gag-Pol polyprotein [1]): 8 µM
- IC50 (Gag-Pol polyprotein [2]): 4 µM

SMILES: O=C(/C=C/c1ccc(O)c(O)c1)Nc1ccc(S(=O)(=O)Nc2cccc(Cl)c2F)cc1 [(E)-3-(3,4-Dihydroxyphenyl)-N-(4-(3-chloro-2-fluorophenylsulfamoyl)phenyl)acrylamide (11l)]
- IC50 (Gag-Pol polyprotein [1]): 22 µM
- IC50 (Gag-Pol polyprotein [2]): 14 µM

SMILES: O=C(/C=C/c1ccc(O)c(O)c1)Nc1ccc(S(=O)(=O)Nc2ccc(F)c(Cl)c2)cc1 [(E)-3-(3,4-Dihydroxyphenyl)-N-(4-(3-chloro-4-fluorophenylsulfamoyl)phenyl)acrylamide (11v)]
- IC50 (Gag-Pol polyprotein [1]): 8 µM
- IC50 (Gag-Pol polyprotein [2]): 4 µM

SMILES: O=C(/C=C/c1ccc(O)c(O)c1)Nc1ccc(S(=O)(=O)Nc2ccc(Br)cc2)cc1 [(E)-3-(3,4-Dihydroxyphenyl)-N-(4-(4-Bromophenylsulfamoyl)phenyl)acrylamide (11e)]
- IC50 (Gag-Pol polyprotein [1]): 35 µM
- IC50 (Gag-Pol polyprotein [2]): 8 µM

SMILES: CCCCc1ccc(NS(=O)(=O)c2ccc(NC(=O)/C=C/c3ccc(O)c(O)c3)cc2)cc1 [(E)-3-(3,4-Dihydroxyphenyl)-N-(4-(4-Butylphenylsulfamoyl)phenyl)acrylamide (11i)]
- IC50 (Gag-Pol polyprotein [1]): 25 µM
- IC50 (Gag-Pol polyprotein [2]): 7 µM

SMILES: CCOc1ccc(NS(=O)(=O)c2ccc(NC(=O)/C=C/c3ccc(O)c(O)c3)cc2)cc1 [(E)-3-(3,4-Dihydroxyphenyl)-N-(4-(4-Ethoxylphenylsulfamoyl)phenyl)acrylamide (11j)]
- IC50 (Gag-Pol polyprotein [1]): 35 µM
- IC50 (Gag-Pol polyprotein [2]): 9 µM

SMILES: O=C(/C=C/c1ccc(O)c(O)c1)Nc1ccc(S(=O)(=O)NCc2ccc(F)cc2)cc1 [(E)-3-(3,4-Dihydroxyphenyl)-N-(4-(4-Fluorobenzylsulfamoyl)phenyl)acrylamide (11d)]
- IC50 (Gag-Pol polyprotein [1]): 24 µM
- IC50 (Gag-Pol polyprotein [2]): 9 µM

SMILES: O=C(/C=C/c1ccc(O)c(O)c1)Nc1ccc(S(=O)(=O)NCCc2ccc(F)cc2)cc1 [(E)-3-(3,4-Dihydroxyphenyl)-N-(4-(4-Fluorophenethylsulfamoyl)phenyl)acrylamide (11t)]
- IC50 (Gag-Pol polyprotein [1]): 14 µM
- IC50 (Gag-Pol polyprotein [2]): 10 µM

SMILES: O=C(/C=C/c1ccc(O)c(O)c1)Nc1ccc(S(=O)(=O)Nc2ccc(F)cc2)cc1 [(E)-3-(3,4-Dihydroxyphenyl)-N-(4-(4-Fluorophenylsulfamoyl)phenyl)acrylamide (11a)]
- IC50 (Gag-Pol polyprotein [1]): 8 µM
- IC50 (Gag-Pol polyprotein [2]): 5 µM

SMILES: O=C(/C=C/c1ccc(O)c(O)c1)Nc1ccc(S(=O)(=O)Nc2ccccc2)cc1 [(E)-3-(3,4-Dihydroxyphenyl)-N-(4-phenylsulfamoylphenyl)acrylamide (11m)]
- IC50 (Gag-Pol polyprotein [1]): 16 µM
- IC50 (Gag-Pol polyprotein [2]): 12 µM

SMILES: CC(=O)Oc1cc(C(=O)Nc2ccc(S(=O)(=O)Nc3ccccc3Br)cc2)cc(OC(C)=O)c1OC(C)=O [N-(4-(2-Bromophenylsulfamoyl)phenyl)-3,4,5-triacetoxybenzamide (8g)]
- IC50 (Gag-Pol polyprotein [1]): 12 µM
- IC50 (Gag-Pol polyprotein [2]): 3 µM

SMILES: O=C(Nc1ccc(S(=O)(=O)Nc2ccccc2Br)cc1)c1cc(O)c(O)c(O)c1 [N-(4-(2-Bromophenylsulfamoyl)phenyl)galloylamide (9g)]
- IC50 (Gag-Pol polyprotein [1]): 5 µM
- IC50 (Gag-Pol polyprotein [2]): 1.4 µM

SMILES: CC(=O)Oc1cc(C(=O)Nc2ccc(S(=O)(=O)Nc3ccccc3C)cc2)cc(OC(C)=O)c1OC(C)=O [N-(4-(2-Methylphenylsulfamoyl)phenyl)-3,4,5-triacetoxybenzamide (8s)]
- IC50 (Gag-Pol polyprotein [1]): > 10 µM
- IC50 (Gag-Pol polyprotein [2]): 1.6 µM

SMILES: Cc1ccccc1NS(=O)(=O)c1ccc(NC(=O)c2cc(O)c(O)c(O)c2)cc1 [N-(4-(2-Methylphenylsulfamoyl)phenyl)galloylamide (9s)]
- IC50 (Gag-Pol polyprotein [1]): 7 µM
- IC50 (Gag-Pol polyprotein [2]): 2 µM

SMILES: O=C(Nc1ccc(S(=O)(=O)Nc2ccc(Cl)c(Cl)c2)cc1)c1cc(O)c(O)c(O)c1 [N-(4-(3,4-Dichlorophenylsulfamoyl)phenyl)galloylamide (9h)]
- IC50 (Gag-Pol polyprotein [1]): 5 µM
- IC50 (Gag-Pol polyprotein [2]): 1.7 µM

SMILES: Cc1ccc(NS(=O)(=O)c2ccc(NC(=O)c3cc(O)c(O)c(O)c3)cc2)cc1C [N-(4-(3,4-Dimethylphenylsulfamoyl)phenyl)galloylamide (9p)]
- IC50 (Gag-Pol polyprotein [1]): 8 µM
- IC50 (Gag-Pol polyprotein [2]): 8 µM

SMILES: Cc1cc(C)cc(NS(=O)(=O)c2ccc(NC(=O)c3cc(O)c(O)c(O)c3)cc2)c1 [N-(4-(3,5-Dimethylphenylsulfamoyl)phenyl)galloylamide (9k)]
- IC50 (Gag-Pol polyprotein [1]): 8 µM
- IC50 (Gag-Pol polyprotein [2]): 2.5 µM

SMILES: O=C(Nc1ccc(S(=O)(=O)Nc2cccc(Br)c2)cc1)c1ccc(O)c(O)c1 [N-(4-(3-Bromophenylsulfamoyl)phenyl)3,4-dihydroxybenzamide (11x)]
- IC50 (Gag-Pol polyprotein [1]): 45 µM
- IC50 (Gag-Pol polyprotein [2]): 15 µM

SMILES: O=C(Nc1ccc(S(=O)(=O)Nc2cccc(Br)c2)cc1)c1cc(O)c(O)c(O)c1 [N-(4-(3-Bromophenylsulfamoyl)phenyl)galloylamide (9f)]
- IC50 (Gag-Pol polyprotein [1]): 2 µM
- IC50 (Gag-Pol polyprotein [2]): 0.7 µM
